What all share (test): DTP human tumour cell line panel, 48 h
Test [1] relates to M19-MEL.
The test system of test [2] is SW-620.
Test [3] deals with UACC-62.
The subject of test [4] is K562.
In test [5] the test system is MOLT-4.
For test [6], the system named is EKVX.
The subject of test [7] is SF-295.
The test system of test [8] is OVCAR-3.
The test system of test [9] is DU-145.
Test [10] concerns NCI-H226.
For test [11], the system named is HOP-92.
Test [12] concerns SNB-75.
The subject of test [13] is OVCAR-8.
For test [14], the system named is HOP-62.
The subject of test [15] is MDA-N.
The subject of test [16] is HCT-116.
The test system of test [17] is CCRF-CEM.
The test system of test [18] is OVCAR-5.
Test [19] has as its system NCI-H23.
The subject of test [20] is SK-MEL-28.

Structures are written as SMILES.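 Grown in 96-well plates, cells were treated for 48 hours with each compound at five concentrations. Insufficient inhibition: endpoint recorded as highest concentration tested. GI50: concentration for 50% inhibition of growth.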 The source made the active and inactive calls. Cut-off read from the data, not from the text of the source: active = GI50 up to about 1.1 µM and inactive = higher.

In the case of `COc1cccc2c1C(=O)c1c(O)c3c(c(O)c1C2=O)C[C@@](O)(C(C)=O)C[C@@H]3OC1CC(N(C)C)C(O)C(C)O1` (stereo partly specified), the GI50 – broadly, the concentration that inhibits growth by half – in test [1] was 0.0213 µM (active); in test [2], 0.00348 µM (active); in [3], 0.00427 µM (active); in [4], 0.00318 µM (active); in test [5], 0.00309 µM (active); in test [6] it was 0.00485 µM (active). Besides, the GI50 in test [7] was 0.00425 µM (active); in [8], 0.00649 µM (active); in test [9], 0.000785 µM (active); in [10] it was 0.029 µM (active); in test [11], 0.084 µM (active); in test [12] it was 0.00346 µM (active). The GI50 in [13] is 0.00405 µM (active); in test [14], 0.00344 µM (active); in test [15] it was 0.000226 µM (active); in [16], 0.00169 µM (active); in test [17] it was 0.00412 µM (active); in test [18], 0.00577 µM (active). In addition, the GI50 in [19] is 0.00508 µM (active); in test [20], 0.00516 µM (active).

As for `COc1cc([C@@H]2c3cc4c(c(O)c3C[C@H]3COC(=O)[C@@H]32)OCO4)cc(OC)c1OC` [BETA-PELTATIN A], the GI50 is 0.0548 µM (active) in test [1]; 0.015 µM (active) in test [2]; 19.5 µM (inactive) in [4]; 0.015 µM (active) in test [5]; 0.282 µM (active) in test [6]; 0.0238 µM (active) in [7]. Also, the GI50 was 0.015 µM (active) in test [8]; < 0.0241 µM (active) in test [9]; 0.302 µM (active) in [10]; 0.015 µM (active) in test [11]; 1.61 µM (inactive) in test [12]; 0.015 µM (active) in [13]. In addition, the GI50 in test [14] was 0.323 µM (active); in [15] it was 0.000284 µM (active); in test [16] it was 0.015 µM (active); in [17], 1.8 µM (inactive); in test [18] it was 21.4 µM (inactive); in test [20] it was 4.18 µM (inactive).

Regarding `CC(C)(C)N1CC1CNC(=O)C(=O)NCC1CN1C(C)(C)C` (stereo unspecified), the GI50 in test [1] was 1.26 µM (inactive); in [2], 3.08 µM (inactive); in test [3], 2.18 µM (inactive); in test [4], 3.79 µM (inactive); in test [5], 1.57 µM (inactive); in test [6], 14.2 µM (inactive). For the same molecule, the GI50 was 3.33 µM (inactive) in test [7]; 4.62 µM (inactive) in [8]; 7.62 µM (inactive) in test [9]; 7.83 µM (inactive) in [10]; 9.51 µM (inactive) in test [11]; 4.32 µM (inactive) in test [12]. Further, the GI50 in [13] was 1.79 µM (inactive); in test [14], 1.31 µM (inactive); in [15], 25.8 µM (inactive); in test [16], 3.97 µM (inactive); in [17], 0.665 µM (active); in test [18], 2.62 µM (inactive). In addition, the values for the GI50 in test [19] and in test [20] were 2.74 µM (inactive) and 5.42 µM (inactive), respectively.

Turning to `COc1ccc(NC(=O)CSc2nnc(-c3ccc(/N=C\c4ccc(Cl)cc4)cc3)o2)cc1`, the GI50 in test [1] is 15 µM (inactive); in test [2], 22.1 µM (inactive); in test [3] it was 28.8 µM (inactive); in test [4] it was 11 µM (inactive); in [5], 13.9 µM (inactive); in [6], > 59.2 µM (inactive). Besides, the GI50 in test [7] was 48.5 µM (inactive); in test [8] it was 21.4 µM (inactive); in [9], 34.5 µM (inactive); in [10], > 44.6 µM (inactive); in test [11], 14.4 µM (inactive); in test [12], 31.6 µM (inactive). The GI50 is 35.9 µM (inactive) in [13]; 24.8 µM (inactive) in test [14]; 39.6 µM (inactive) in [15]; 14.2 µM (inactive) in test [16]; 8.22 µM (inactive) in test [17]; > 100 µM (inactive) in [18]. Besides, the figures for the GI50 in test [19] and in [20] were 36 µM (inactive) and > 45.1 µM (inactive), respectively.

Turning to `CCCCCCCCCCCCCCCCCC(=O)Nc1ccn(C2OC(CO)C(O)C2O)c(=O)n1` (stereo unspecified), the GI50 in [1] was 5.69 µM (inactive); in [2] it was 57.1 µM (inactive); in [3] it was 40.3 µM (inactive); in test [4], 7.67 µM (inactive); in test [5], 0.343 µM (active); in [6] it was > 100 µM (inactive). The GI50 in test [7] was > 85.1 µM (inactive); in test [8], 7.93 µM (inactive); in test [9], 10.7 µM (inactive); in test [10], > 90.2 µM (inactive); in test [11] it was 58.1 µM (inactive); in test [12], 52.6 µM (inactive). Further, the GI50 in [13] is 7.48 µM (inactive); in test [14], 2.8 µM (inactive); in test [15] it was > 100 µM (inactive); in test [16], 3.32 µM (inactive); in test [17], 0.097 µM (active); in test [18], > 70.5 µM (inactive). Also, the GI50 in test [19] is 4.8 µM (inactive); in test [20] it was 31.9 µM (inactive).

With `CC(=O)NC1C(=O)CC(c2ccccc2)N(C)C1c1ccccc1` (stereo unspecified), the GI50 in test [1], in [2], in test [3], in [4], in test [5] and in test [6] was > 100 µM (inactive) in each case. The GI50 in [7] was > 100 µM (inactive); in test [8], > 100 µM (inactive); in test [10], > 100 µM (inactive); in [11], 82.6 µM (inactive); in test [12], > 100 µM (inactive); in [13] it was > 100 µM (inactive). Also, the GI50 in test [14], in [16], in test [17], in [18], in [19] and in test [20] was > 100 µM (inactive) each time.

`Nc1ccc2c(c1)CN1C(=O)c3ccccc3C1=N2` [DANIQUIDONE]: the GI50 is > 116 µM (inactive) in test [1]; 24.5 µM (inactive) in test [2]; 32.6 µM (inactive) in [3]; 67.5 µM (inactive) in test [4]; 3.77 µM (inactive) in test [5]; 51.3 µM (inactive) in [6]. Moreover, the GI50 in test [7] was 12.9 µM (inactive); in [8] it was 40.9 µM (inactive); in [9], 27.4 µM (inactive); in test [10], 45.9 µM (inactive); in test [11], 36.9 µM (inactive); in test [12], 30.2 µM (inactive). For the same molecule, the GI50 in test [13] was 22 µM (inactive); in [14] it was 9.71 µM (inactive); in [15], 49.4 µM (inactive); in test [16] it was 16.7 µM (inactive); in test [17], 10.7 µM (inactive); in test [18], 64.9 µM (inactive). In addition, the GI50 was 69 µM (inactive) in test [19] and > 119 µM (inactive) in test [20].

The values are drawn from ChEMBL document CHEMBL1201862, “PubChem BioAssay data set” (2004).
